Assays:
[1] = biological target: T1, caspase-8 (Homo sapiens, UniProt Q14790); assay: Caspase-8 inhibitory effect (fluorescent substrate AcDEVD-AFC); type: biochemical; details: pH 7.5; 25° C., 50 μM AcDEVD-AFC, 2.1 nM caspase-8; read-out: Caspase-8 Kobs/[I] (converted)
T1 construct: p10 and p20 subunits (Thornberry, N. A. et al, Nature, 1992, 356, 768) were expressed in E. coli; made in house; host or cells: E. coli
Experimental: (§1) Caspase-1 and caspase-8 known as cysteine proteases in the form of α2β2 were expressed, purified, and activated by modifying a method known in Thornberry, N. A. et al, Nature, 1992, 356, 768. Thornberry, N. A. Methods in Enzymology, 1994, 244, 615. Walker, N. P. C. et al. Cell, 1994, 78, 343, and caspase-9 was also purified by a similar method, and the inhibitory activity against them was tested. Briefly describing, p10 and p20 subunits (Thornberry, N. A. et al, Nature, 1992, 356, 768) were expressed in E. coli and purified by nickel column and anionic exchange chromatography to give caspase-1, caspase-8 and caspase-9. The fluorescent substrate AcYVAD-AFC for thus obtained caspase-1, AcDEVD-AFC for caspase-8, and AcLEHD-AFC for caspase-9 were used for determining specific activity of the synthesized inhibitors. The enzyme reaction was carried out at 25° C. with various concentrations of the inhibitors in a buffer solution containing 50 mM HEPES(pH 7.50), 10% (w/v) sucrose, 0.1% (w/v) CHAPS, 100 mM NaCl, 1 mM EDTA, and 10 mM DTT in the presence of 50 μM AcYVAD-AFC for 10 nM caspase-1, 50 μM AcDEVD-AFC for 2.1 nM caspase-8, and 150 μM AcLEHD-AFC for 200 nM caspase-9. The inhibitory constants Ki and Kobs of the inhibitors were determined by measuring the reaction velocity with the time lapse using a fluorescent spectrometer and by obtaining the initial rate constant. Ki was calculated from the Lineweaver Burk Plot, and Kobs from the following Equation 1. Kobs=−ln(1−At/Aoo)/t Equation 1
(§2) At means cleavate rate (%) at time t, and
(§3) Aoo means the maximum cleavage rate (%).
(§4) Spectra MAX GeminiXS Fluorescent Spectrometer of Molecular Device Co. was used at the excitation wavelength of 405 nm and the emission wavelength of […].

[2] = biological target: T2, caspase-1 (Homo sapiens, UniProt P29466); assay: Caspase-1 inhibitory effect (fluorescent substrate AcYVAD-AFC); type: biochemical; details: pH 7.5; 25° C., 50 μM AcYVAD-AFC, 10 nM caspase-1; read-out: Caspase-1 Kobs/[I] (converted)
T2 construct: p10 and p20 subunits (Thornberry, N. A. et al, Nature, 1992, 356, 768) were expressed in E. coli; made in house; host or cells: E. coli
T2 sequence (P29466 120-297 limits assumed): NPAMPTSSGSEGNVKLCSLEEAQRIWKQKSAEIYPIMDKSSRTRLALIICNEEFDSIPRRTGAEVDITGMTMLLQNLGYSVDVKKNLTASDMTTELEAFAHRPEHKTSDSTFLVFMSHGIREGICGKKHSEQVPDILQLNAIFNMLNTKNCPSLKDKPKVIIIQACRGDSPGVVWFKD
T2 sequence (P29466 317-404 limits assumed): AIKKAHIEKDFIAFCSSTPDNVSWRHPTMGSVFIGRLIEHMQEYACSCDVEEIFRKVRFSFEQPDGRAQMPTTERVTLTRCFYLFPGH
Experimental: as §1, §2, §3, §4

[3] = system: Jurkat cell (ATCC TIB-152); assay: Jurkat cell apoptosis by Fas antibody, WST-1 method; type: cell-based; details: Homo sapiens, Jurkat, apoptosis using Fas antibody, WST-1
Experimental: The […] inhibitory activity of the inhibitors was determined by subjecting Jurkat cell (ATCC TIB-152) to apoptosis using Fas antibody (Upstate Biotech 05-201) and by detecting the color change according to the WST-1 method known in Francoeur A. M. and Assalian A. (1996) Biochemica 3, 19-25 to observe the amount of alive Jurkat cells when the cells were treated by the inhibitor. Spectra MAX 340 Spectrometer of Molecular Device Co. was used at the absorbance wavelength of 440 nm.

[4] = biological target: T3, caspase-9 (Homo sapiens, UniProt P55211); assay: Caspase-9 inhibitory effect (fluorescent substrate AcLEHD-AFC); type: biochemical; details: pH 7.5; 25° C., 150 μM AcLEHD-AFC, 200 nM caspase-9; read-out: Caspase-9 Kobs/[I] (converted)
T3 construct: p10 and p20 subunits (Thornberry, N. A. et al, Nature, 1992, 356, 768) were expressed in E. coli; made in house; host or cells: E. coli
T3 sequence (P55211 1-315 limits assumed): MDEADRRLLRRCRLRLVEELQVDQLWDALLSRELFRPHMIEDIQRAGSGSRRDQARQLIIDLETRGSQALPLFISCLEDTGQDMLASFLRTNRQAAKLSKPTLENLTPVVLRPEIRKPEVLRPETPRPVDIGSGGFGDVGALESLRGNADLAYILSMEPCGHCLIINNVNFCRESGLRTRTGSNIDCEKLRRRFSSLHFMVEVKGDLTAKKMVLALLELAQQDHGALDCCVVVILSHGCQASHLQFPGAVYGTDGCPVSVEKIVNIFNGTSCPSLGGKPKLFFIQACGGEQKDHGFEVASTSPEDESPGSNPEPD
T3 sequence (P55211 331-416 limits assumed): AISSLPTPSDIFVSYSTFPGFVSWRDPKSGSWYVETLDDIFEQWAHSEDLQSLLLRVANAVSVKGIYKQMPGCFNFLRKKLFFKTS
Experimental: as §1, with “The enzyme reaction was carried out at 25° C. with various concentrations of the inhibitors in a buffer solution containing 50 mM HEPES(pH 7.50), 10% (w/v) sucrose, 0.1% (w/v) CHAPS, 100 mM NaCl, 1 mM EDTA, and 10 mM DTT in the presence of 50 μM AcYVAD-AFC for 10 nM caspase-1, 50 μM AcDEVD-AFC for 2.1 nM caspase-8, and 150 μM AcLEHD-AFC for 200 nM caspase-9.” left out, “Kobs=−ln(1−At/Aoo)/t Equation 1” left out

T1 sequence (Q14790 217-374 limits assumed, species assumed): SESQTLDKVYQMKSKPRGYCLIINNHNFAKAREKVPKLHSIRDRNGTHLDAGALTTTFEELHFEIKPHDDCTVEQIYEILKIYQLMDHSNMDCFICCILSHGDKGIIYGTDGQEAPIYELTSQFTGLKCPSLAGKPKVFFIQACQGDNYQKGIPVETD
T1 sequence (Q14790 385-479 limits assumed, species assumed): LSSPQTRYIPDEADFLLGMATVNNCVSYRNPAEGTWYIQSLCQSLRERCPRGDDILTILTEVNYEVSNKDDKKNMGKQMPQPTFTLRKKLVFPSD

| Structure (SMILES) | kinact/KI [1] [M⁻¹ s⁻¹] | kinact/KI [2] [M⁻¹ s⁻¹] | IC50 [3] [µM] | kinact/KI [4] [M⁻¹ s⁻¹] |
| --- | --- | --- | --- | --- |
| CCC1(C(=O)N[C@@H](CC(=O)O)C(=O)COc2c(F)c(F)cc(F)c2F)CC(c2ccccc2)=NO1 (stereo partly drawn) [Icc, (3S)-3-{[(5-ethyl-3-phenyl-4,5-dihydro-5-isoxazolyl)carbonyl]amino}-4-oxo-5-(2,3,5,6-tetrafluorophenoxy)pentanoic acid] | 550 | 3170 | 22.5 |  |
| CCC1(C(=O)N[C@@H](CC(=O)O)C(=O)COc2c(F)c(F)cc(F)c2F)CC(c2cccc3ccccc23)=NO1 (stereo partly drawn) [Idd, (3S)-3-({[5-ethyl-3-(1-naphthyl)-4,5-dihydro-5-isoxazolyl]carbonyl}amino)-4-oxo-5-(2,3,5,6-tetrafluorophenoxy)pentanoic Acid] | 3170 | 5170 | 4.25 |  |
| CCC1(C(=O)N[C@@H](CC(=O)O)C(=O)COc2c(F)c(F)cc(F)c2F)CC(COc2ccc(Cl)c3ccccc23)=NO1 (stereo partly drawn) [Iqq, (3S)-3-{[(3-{[(4-Chloro-1-naphthyl)oxy]methyl}-5-ethyl-4,5-dihydro-5-isoxazolyl)carbonyl]amino}-4-oxo-5-(2,3,5,6-tetrafluorophenoxy)pentanoic acid] | 2330 | 55000 | 37 |  |

Now those with a lower IC50 [3], led by results:

| kinact/KI [1] [M⁻¹ s⁻¹] | kinact/KI [2] [M⁻¹ s⁻¹] | IC50 [3] [µM] | kinact/KI [4] [M⁻¹ s⁻¹] | Structure (SMILES) |
| --- | --- | --- | --- | --- |
| 25000 | 45000 | 0.17 | 5330 | CCC1(C(=O)NC(CC(=O)O)C(=O)CF)CC(c2nccc3ccccc23)=NO1 (stereo not shown) [Igg, 3-({[5-Ethyl-3-(1-isoquinolinyl)-4,5-dihydro-5-isoxazolyl]carbonyl}amino)-5-fluoro-4-oxopentanoic acid] |
| 2830 | 38300 | 3.5 |  | CCC1(C(=O)N[C@@H](CC(=O)O)C(=O)COc2c(F)c(F)cc(F)c2F)CC(COc2cccc3ccccc23)=NO1 (stereo partly drawn) [Ipp, (3S)-3-[({5-Ethyl-3-[(1-naphthyloxy)methyl]-4,5-dihydro-5-isoxazolyl]carbonyl)amino]-4-oxo-5-(2,3,5,6-tetrafluorophenoxy)pentanoic acid] |
